Experimental data reported in ChEMBL document CHEMBL3244272, “Folate antagonists. 15. 2,3-Diamino-6-(2-naphthylsulfonyl)quinazoline and related 2,4-diamino-6-[(phenyl and naphthyl)sulfinyl and sulfonyl]quinazolines, a potent new class of antimetabolites with phenomenal antimalarial activity” (J Med Chem, 1979).
≈ marks a conversion by molar mass, not a printed value. Calls of active or inactive are those of the source. The calls are words filed in the database; no cut-off is given here.

Key:
Enterococcus faecalis = test: Antibacterial activity against Streptococcus faecalis MGH-2 assessed as growth inhibition; type: functional
Staphylococcus aureus [1] = test: Antibacterial activity against Staphylococcus aureus UC-76 assessed as growth inhibition; type: functional
Staphylococcus aureus [2] = test: Antibacterial activity against Staphylococcus aureus S18713 assessed as growth inhibition; type: functional
Pseudomonas aeruginosa = test: Antibacterial activity against Pseudomonas aeruginosa 28 assessed as growth inhibition; type: functional
Escherichia coli = test: Antibacterial activity against Escherichia coli Vogel assessed as growth inhibition; type: functional
Shigella sonnei = test: Antibacterial activity against Shigella sonnei C-10 assessed as growth inhibition; type: functional
Gallus gallus [3] = test: Toxicity in trophozoite-induced Plasmodium gallinaceum infected in chick assessed as death at 80 mg/kg, sc single dose measured within 48 hrs; type: organism-based; design: dose 80 mg/kg, route subcutaneous; conditions: chicken, in vivo
Plasmodium berghei [4] = test: Antimalarial activity against trophozoite-induced Plasmodium berghei infected in sc dosed mouse assessed as minimum curative dose; type: functional
Plasmodium berghei [5] = test: Antimalarial activity against trophozoite-induced Plasmodium berghei infected in mouse assessed as change in mean survival time at 10 mg/kg, sc single dose after 72 hrs of infection; type: functional; conditions: route subcutaneous
Plasmodium berghei [6] = test: Antimalarial activity against trophozoite-induced Plasmodium berghei infected in mouse assessed as change in mean survival time at 5 mg/kg, sc single dose after 72 hrs of infection; type: functional; conditions: route subcutaneous
Plasmodium berghei [7] = test: Antimalarial activity against trophozoite-induced Plasmodium berghei infected in mouse assessed as change in mean survival time at 2.5 mg/kg, sc single dose after 72 hrs of infection; type: functional; conditions: route subcutaneous
Plasmodium berghei [8] = test: Antimalarial activity against trophozoite-induced Plasmodium berghei infected in mouse assessed as change in mean survival time at 1.25 mg/kg, sc single dose after 72 hrs of infection; type: functional; conditions: route subcutaneous
Plasmodium gallinaceum [9] = test: Antimalarial activity against trophozoite-induced Plasmodium gallinaceum infected in chick assessed as mean survival time at 40 mg/kg, sc single dose (reference value: 4 days); type: functional; conditions: route subcutaneous
Plasmodium gallinaceum [10] = test: Antimalarial activity against trophozoite-induced Plasmodium gallinaceum infected in chick assessed as mean survival time at 20 mg/kg, sc single dose (reference value: 4 days); type: functional; conditions: route subcutaneous
Plasmodium gallinaceum [11] = test: Antimalarial activity against trophozoite-induced Plasmodium gallinaceum infected in chick assessed as mean survival time at 10 mg/kg, sc single dose (reference value: 4 days); type: functional; conditions: route subcutaneous
Plasmodium gallinaceum [12] = test: Antimalarial activity against trophozoite-induced Plasmodium gallinaceum infected in chick assessed as mean survival time at 5 mg/kg, sc single dose (reference value: 4 days); type: functional; conditions: route subcutaneous
Plasmodium gallinaceum [13] = test: Antimalarial activity against trophozoite-induced Plasmodium gallinaceum infected in chick assessed as mean survival time at 2.5 mg/kg, sc single dose (reference value: 4 days); type: functional; conditions: route subcutaneous
Plasmodium gallinaceum [14] = test: Antimalarial activity against trophozoite-induced Plasmodium gallinaceum infected in chick assessed as cured at 5 mg/kg, sc single dose; type: functional, organism-based; design: dose 5 mg/kg
Plasmodium gallinaceum [15] = test: Antimalarial activity against trophozoite-induced Plasmodium gallinaceum infected in chick assessed as cured at 2.5 mg/kg, sc single dose; type: functional, organism-based; design: dose 2.5 mg/kg
Gallus gallus [16] = test: Toxicity in trophozoite-induced Plasmodium gallinaceum infected in chick assessed as death at 160 mg/kg, sc single dose measured within 48 hrs; type: organism-based; design: dose 160 mg/kg, route subcutaneous; conditions: chicken, in vivo
Gallus gallus [17] = test: Toxicity in trophozoite-induced Plasmodium gallinaceum infected in chick assessed as death at 40 mg/kg, sc single dose measured within 48 hrs; type: organism-based; design: dose 40 mg/kg, route subcutaneous; conditions: chicken, in vivo
Gallus gallus [18] = test: Toxicity in trophozoite-induced Plasmodium gallinaceum infected in chick assessed as death at 20 mg/kg, sc single dose measured within 48 hrs; type: organism-based; design: dose 20 mg/kg, route subcutaneous; conditions: chicken, in vivo
Gallus gallus [19] = test: Toxicity in trophozoite-induced Plasmodium gallinaceum infected in chick assessed as death at 10 mg/kg, sc single dose measured within 48 hrs; type: organism-based; design: dose 10 mg/kg, route subcutaneous; conditions: chicken, in vivo
Gallus gallus [20] = test: Toxicity in trophozoite-induced Plasmodium gallinaceum infected in chick assessed as death at 5 mg/kg, sc single dose measured within 48 hrs; type: organism-based; design: dose 5 mg/kg, route subcutaneous; conditions: chicken, in vivo
Gallus gallus [21] = test: Toxicity in trophozoite-induced Plasmodium gallinaceum infected in chick assessed as death at 2.5 mg/kg, sc single dose measured within 48 hrs; type: organism-based; design: dose 2.5 mg/kg, route subcutaneous; conditions: chicken, in vivo
Plasmodium berghei [22] = test: Antimalarial activity against trophozoite-induced Plasmodium berghei infected in mouse assessed as change in mean survival time at 80 mg/kg, sc single dose after 72 hrs of infection; type: functional; conditions: route subcutaneous
Plasmodium berghei [23] = test: Antimalarial activity against trophozoite-induced Plasmodium berghei infected in mouse assessed as change in mean survival time at 40 mg/kg, sc single dose after 72 hrs of infection; type: functional; conditions: route subcutaneous
Plasmodium berghei [24] = test: Antimalarial activity against trophozoite-induced Plasmodium berghei infected in mouse assessed as change in mean survival time at 20 mg/kg, sc single dose after 72 hrs of infection; type: functional; conditions: route subcutaneous
Plasmodium gallinaceum [25] = test: Antimalarial activity against trophozoite-induced Plasmodium gallinaceum infected in chick assessed as mean survival time at 120 mg/kg, sc single dose (reference value: 3.6 days); type: functional; conditions: route subcutaneous
Plasmodium gallinaceum [26] = test: Antimalarial activity against trophozoite-induced Plasmodium gallinaceum infected in chick assessed as mean survival time at 60 mg/kg, sc single dose (reference value: 3.6 days); type: functional; conditions: route subcutaneous
Plasmodium gallinaceum [27] = test: Antimalarial activity against trophozoite-induced Plasmodium gallinaceum infected in chick assessed as mean survival time at 30 mg/kg, sc single dose (reference value: 3.6 days); type: functional; conditions: route subcutaneous
Gallus gallus [28] = test: Toxicity in trophozoite-induced Plasmodium gallinaceum infected in chick assessed as death at 30 mg/kg, sc single dose measured within 48 hrs; type: organism-based; design: dose 30 mg/kg, route subcutaneous; conditions: chicken, in vivo
Plasmodium gallinaceum [29] = test: Antimalarial activity against sporozoite-induced Plasmodium gallinaceum infected in chick assessed as change in cured at 60 mg/kg, sc single dose; type: functional; conditions: route subcutaneous
Plasmodium gallinaceum [30] = test: Antimalarial activity against sporozoite-induced Plasmodium gallinaceum infected in chick assessed as change in cured at 30 mg/kg, sc single dose; type: functional; conditions: route subcutaneous
Plasmodium gallinaceum [31] = test: Antimalarial activity against sporozoite-induced Plasmodium gallinaceum infected in chick assessed as change in cured at 15 mg/kg, sc single dose; type: functional; conditions: route subcutaneous
Plasmodium gallinaceum [32] = test: Antimalarial activity against trophozoite-induced Plasmodium gallinaceum infected in chick assessed as mean survival time at 160 mg/kg, sc single dose (reference value: 4 days); type: functional; conditions: route subcutaneous
Plasmodium gallinaceum [33] = test: Antimalarial activity against trophozoite-induced Plasmodium gallinaceum infected in chick assessed as cured at 160 mg/kg, sc single dose; type: functional, organism-based; design: dose 160 mg/kg

**Q.** Nc1nc(N)c2cc([S+]([O-])c3ccc(Cl)cc3)ccc2n1 (centres undefined) was tested. Which MIC (Enterococcus faecalis) did it give?
**A.** < 0.25 µg/mL

**Q.** And the MIC (Staphylococcus aureus [1])?
**A.** < 0.25 µg/mL

**Q.** And the MIC (Staphylococcus aureus [2])?
**A.** < 0.25 µg/mL

**Q.** What about the MIC (Pseudomonas aeruginosa) of the same compound?
**A.** > 25 µg/mL

**Q.** What about the MIC (Escherichia coli) of the same compound?
**A.** 1.5 µg/mL (≈ 4.71 µM)

**Q.** What about the MIC (Shigella sonnei) of the same compound?
**A.** 20 µg/mL (≈ 62.7 µM)

**Q.** And the Activity (Gallus gallus [3])?
**A.** Toxic

**Q.** What about the MCD (Plasmodium berghei [4]) of the same compound?
**A.** 40 mg/kg

**Q.** What about the MST (Plasmodium berghei [5]) of the same compound?
**A.** 7.3 days

**Q.** And the MST (Plasmodium berghei [6])?
**A.** 4.8 days

**Q.** What about the MST (Plasmodium berghei [7]) of the same compound?
**A.** 6 days

**Q.** And the MST (Plasmodium berghei [8])?
**A.** 4.2 days

**Q.** What about the MST (Plasmodium gallinaceum [9]) of the same compound?
**A.** 27.5 days

**Q.** What about the MST (Plasmodium gallinaceum [10]) of the same compound?
**A.** 23 days

**Q.** What about the MST (Plasmodium gallinaceum [11]) of the same compound?
**A.** 23 days

**Q.** And the MST (Plasmodium gallinaceum [12])?
**A.** 15.8 days

**Q.** And the MST (Plasmodium gallinaceum [13])?
**A.** 4 days

**Q.** And the Activity (Plasmodium gallinaceum [14])?
**A.** Active

**Q.** What about the Activity (Plasmodium gallinaceum [15]) of the same compound?
**A.** Active

**Q.** What about the Activity (Gallus gallus [16]) of the same compound?
**A.** Toxic

**Q.** And the Activity (Gallus gallus [17])?
**A.** Toxic

**Q.** And the Activity (Gallus gallus [18])?
**A.** Toxic

**Q.** What about the Activity (Gallus gallus [19]) of the same compound?
**A.** Toxic

**Q.** And the Activity (Gallus gallus [20])?
**A.** Toxic

**Q.** What about the Activity (Gallus gallus [21]) of the same compound?
**A.** Toxic

**Q.** For CC1(C)N=C(N)N=C(N)N1c1ccc(Cl)cc1.Cl [CHLORCYCLOGUANIL HYDROCHLORIDE], which MST (Plasmodium berghei [22]) is on record?
**A.** 21.6 days

**Q.** And the MST (Plasmodium berghei [23])?
**A.** 13.4 days

**Q.** And the MST (Plasmodium berghei [24])?
**A.** 7.9 days

**Q.** What about the MST (Plasmodium berghei [5]) of the same compound?
**A.** 4.9 days

**Q.** And the MST (Plasmodium gallinaceum [25])?
**A.** 22.7 days

**Q.** And the MST (Plasmodium gallinaceum [26])?
**A.** 18.7 days

**Q.** And the MST (Plasmodium gallinaceum [27])?
**A.** 15.3 days

**Q.** And the Activity (Gallus gallus [28])?
**A.** Toxic

**Q.** What about the MST (Plasmodium gallinaceum [29]) of the same compound?
**A.** 0.4 days

**Q.** And the MST (Plasmodium gallinaceum [30])?
**A.** 2.3 days

**Q.** What about the MST (Plasmodium gallinaceum [31]) of the same compound?
**A.** 0 days

**Q.** How did the MIC (Enterococcus faecalis) turn out when COc1ccc(S(=O)(=O)c2ccc3nc(N)nc(N)c3c2)cc1 was run?
**A.** < 0.25 µg/mL

**Q.** And the MIC (Staphylococcus aureus [1])?
**A.** 2.5 µg/mL (≈ 7.57 µM)

**Q.** And the MIC (Staphylococcus aureus [2])?
**A.** 2.5 µg/mL (≈ 7.57 µM)

**Q.** And the MIC (Pseudomonas aeruginosa)?
**A.** > 25 µg/mL

**Q.** What about the MIC (Escherichia coli) of the same compound?
**A.** 2.5 µg/mL (≈ 7.57 µM)

**Q.** What about the MIC (Shigella sonnei) of the same compound?
**A.** 2.5 µg/mL (≈ 7.57 µM)

**Q.** What about the MCD (Plasmodium berghei [4]) of the same compound?
**A.** 20 mg/kg

**Q.** What about the MST (Plasmodium berghei [23]) of the same compound?
**A.** 15.9 days

**Q.** And the MST (Plasmodium berghei [24])?
**A.** 11.4 days

**Q.** What about the MST (Plasmodium berghei [5]) of the same compound?
**A.** 4.9 days

**Q.** What about the MST (Plasmodium gallinaceum [32]) of the same compound?
**A.** 14.8 days

**Q.** What about the Activity (Plasmodium gallinaceum [33]) of the same compound?
**A.** Active

**Q.** What about the Activity (Gallus gallus [16]) of the same compound?
**A.** Toxic
